# In patent US9657348B2, “Method of screening compounds for the treatment of diabetes” (ATROGI AB, priority 2013, dated 2017):
# “Also recorded” adds a separate entry of the source. Starred links: 1 amine or outer side, 2 acyl side, 3 side chain; linkers in the order of their positions; H or OH if unused. Positions of bridges follow the written chain, without caps; N, C: chain ends. Non-standard residues stand in square brackets, D forms with d. Residues, ends and D or L forms follow the SMILES beside them. Chains are numbered I, II in the order given. Actinocin(9to1) = Cc1c2oc3c(C)ccc(C(=O)[*:1])c3nc-2c(C(=O)[*:2])c(N)c1=O; NMeV = CN[C@H](C(=O)O)C(C)C; Sar = CNCC(=O)O
# Assays:
# [1] = test system: human skeletal muscle cells (SKMC); assay: 3H-2-deoxyglucose uptake in human skeletal muscle cells; format: cell-based; details: FIG. 1C
# Method: (§1) Soleus muscles were dissected from Sprague-Dawley rats and suspended in Krebs-Henseleit bicarbonate (KHB) buffer (118.5 mM NaCl, 4.7 mM KCl, 1.2 mM KH2PO4, 25 mM NaHCO3, 2.5 mM CaCl2, 1.2 mM MgSO4, 5 mM HEPES) in organ baths containing 30 ml KHB containing 5 mM glucose and 15 mM mannitol, bubbled with 95% O2/5% CO2 (pH 7.4) and maintained at 37° C. […] Muscles were rinsed with KHB (20 mM mannitol) for 10 min, then incubated in KHB (8 mM 3-O-methylglucose and 12 mM mannitol with 438 μCi/mmol 3-O-methyl[3H]glucose (80.2 Ci/mmol; PerkinElmer) and 42 μCi/mmol [^14C] mannitol (58.8 mCi/mmol; PerkinElmer, USA)) for 12 min. Muscles were then rinsed with PBS and frozen in liquid nitrogen, weighed and dissolved in 1 mL of 0.5M NaOH at 60° C. ^3H and ^14C were measured by liquid scintillation counting. Total muscle 3-O-methylglucose and extracellular space were measured as described previously (Zierath 1995). Intracellular 3-O-methylglucose accumulation was calculated by: (Total muscle 3-O-methylglucose)−(extracellular 3-O-methylglucose)=intracellular 3-O-methylglucose. This was then expressed as a rate of 3-O-methylglucose transport per mL of intracellular water per hour. Glucose uptake was measured in L6 skeletal muscle cells and in human skeletal muscle cells (SKMC) grown in 12-well plates using ^3H-2-deoxyglucose as previously described (Nevzorova et al. 2002) with minor modifications. […]
# [2] = test system: soleus muscle; assay: 3-O-methylglucose transport (glucose uptake) in isolated soleus muscle; format: cell-based; details: soleus muscle from rat; FIG. 1A
# Method: as §1
# [3] = test system: GLUT4; assay: GLUT4 translocation to plasma membrane by immunocytochemistry in L6 cells; format: cell-based, rat; details: non-permeabilized L6 myoblasts; 1 μM, 2 h
# [4] = test system: cAMP; assay: cAMP content over time in L6 myotubes; format: cell-based, rat; details: for maximum difference in cAMP versus cells not brought into contact (Δ1): L6 myotubes
# Method: Further, to determine whether contacting BRL37344 causes a response of a classical secondary messenger in cells with which it is brought into contact, the concentration of cAMP was measured during a period of time. As a reference, cAMP in cells not brought into contact was measured. In FIG. 9A the difference Δ1 for BRL37344 is plotted, and the maximum difference is about 8 pmol. […] The calculated value of r″ therefore is 8/45=0.18.
# [5] = test system: L6 skeletal muscle cells; assay: 3H-2-deoxyglucose uptake in L6 myotubes, with or without inhibitors or GRK2 siRNA; format: cell-based, rat; details: for glucose uptake / effect of GRK2 knock-down with siRNA on glucose uptake stimulated by the substance / basal glucose uptake in presence of inhibitor / insulin- and GPCR-stimulated glucose uptake in presence of inhibitor: L6 myotubes; for glucose uptake: stimulation with drug; for effect of GRK2 knock-down with siRNA on glucose uptake stimulated by the substance: FIG. 7, FIG. 9B; for basal glucose uptake in presence of inhibitor / insulin- and GPCR-stimulated glucose uptake in presence of inhibitor: inhibitor pretreatment 30 min; for insulin- and GPCR-stimulated glucose uptake in presence of inhibitor: then insulin or GPCR stimulation
# Method: Cells were grown as in Example 1. Cells were pretreated with inhibitors for 30 min and then exposed to GPCR stimulation.
# GRK2 siRNA constructs (Sigma Aldrich) as well as control sequence was transfected into L6 mytoubes by electroporation. Differentiated L6 cells were detached by washing in PBS followed by 5 minutes of incubation in trypsin/EDTA (0.1% trypsin w/v, 0.02% EDTA w/v). The detached cells were transferred to Eppendorf tubes and centrifugation at 1000×g for 3 minutes was performed before supernatant was removed and the cells were resuspended in 20 μl/well of SE Cell Line Nucleofector® (Lonza) and 100 nM siRNA. Cells were transferred to a 16-well microcuvette plate (Lonza) and were electroporated in a 4D-Nucleofector® (Lonza). 80 μl of pre-warmed RPMI1640 medium were added to the each microcuvette well for 5 min before the cells were transferred to the Eppendorf tubes containing culture media. Cells were serum starved over night and glucose uptake measured 24 hours after transfection.
# Glucose uptake was detected by ^3H-2-dexoy-glucose as previously described (Nevzorova 2002), with minor modifications. Differentiated L6-myotubes were serum-starved over night in media containing 0.5% fatty-acid free BSA and stimulated with agonists for totally 2 h, unless otherwise stated. Cells were exposed to 50 nM ^3H-2-dexoy-glucose in glucose free media for 6-10 minutes before the experiment was ended by washing the cells in ice-cold PBS or glucose free media. Cells were lysed in 0.2 M NaOH for 1 h in 60° C., mixed with scintillation buffer (Emulsifier Safe, Perkin Elmer) and radioactivity detected in a β-counter (Tri-Carb 2800TR, Perkin Elmer).
# [6] = test system: Human prostate carcinoma (22rv1) cells; assay: Glucose uptake in 22rv1 cells with or without GRK2 siRNA; format: cell-based; details: FIG. 8
# Method: Human prostate carcinoma (22rv1) cells were grown for 7 days in RPMI-1640 medium. […] At day 7, 22rv1 cells were treated with siRNA. siRNA constructs GRK2 (Sigma Aldrich) as well as control sequence were transfected into 22rv1 cells by lipofectamine (Life Technologies Corp.) according to the manufacturer's protocol. Cells were serum starved over night and glucose uptake was measured 24 hours after transfection. Cells were stimulated with drugs for totally 2 h, unless otherwise stated.
# [7] = test system: L6 skeletal muscle cells; assay: Cell viability of L6 cells under transcription/translation inhibitor
compound,measurement,setting,value
"CC(C)NCC(O)c1ccc(O)c(O)c1 (racemic) [isoproterenol, (RS)-4-[1-hydroxy-2-(isopropylamino)ethyl]benzene-1,2-diol]",glucose uptake,[1],leads to glucose uptake
same,glucose uptake,[2],leads to glucose uptake
same,GLUT4 recruitment to the plasma membrane,[3],GLUT4 recruitment to the plasma membrane to the same extent
same,maximum difference in cAMP versus cells not brought into contact (Δ1),[4]; FIG. 9A,about 45 pmol
"C[C@H](Cc1ccc(OCC(=O)O)cc1)NC[C@H](O)c1cccc(Cl)c1 (relative stereo) [BRL37344, (±)-(R*,R*)-[4-[2-[[2-(3-chlorophenyl)-2-hydroxy-ethyl]amino]propyl]phenoxy]acetic acid]",glucose uptake in % of the glucose uptake of the same cells brought into contact with vehicle only,"[5]; (untransfected) cells expressing GRK2, FIG. 9B",175%
same,glucose uptake,[5],stimulate glucose uptake
same,effect of GRK2 knock-down with siRNA on glucose uptake stimulated by the substance,[5],significantly inhibited
same,glucose uptake in % of vehicle,"[5]; transfected (GRK2 siRNA) cells not expressing GRK, FIG. 9B",125%
same,ratio r″ (cAMP response of compound / cAMP response of isoproterenol),[4]; 8/45,0.18
same,maximum difference in cAMP versus cells not brought into contact (Δ1),[4]; FIG. 9A,about 8 pmol
same,contents of cAMP over basal,"[4]; skeletal muscle cells (L6 myotubes), all time points, FIG. 9A",did not significantly increase
CS(=O)(=O)Nc1c(O)ccc2c1CCCC2C1=NCCN1 (centres unmarked) [A61603],effect of GRK2 down-regulation with siRNA on glucose uptake stimulated by the substance,[6],inhibited
"O=C(CCc1ccc(O)cc1)c1c(O)cc(O)cc1O [Phloretin, phloretin]",basal glucose uptake in presence of inhibitor,[5],blocked basal glucose uptake
same,insulin- and GPCR-stimulated glucose uptake in presence of inhibitor,[5],significantly reduced
"Cc1c2oc3c(C)ccc(C(=O)N[C@@H]4C(=O)N[C@H](C(C)C)C(=O)N5CCC[C@H]5C(=O)N(C)CC(=O)N(C)[C@@H](C(C)C)C(=O)O[C@@H]4C)c3nc-2c(C(=O)N[C@@H]2C(=O)N[C@H](C(C)C)C(=O)N3CCC[C@H]3C(=O)N(C)CC(=O)N(C)[C@@H](C(C)C)C(=O)O[C@@H]2C)c(N)c1=O [actinomycin, Actinomycin D] (I: T[dV]P[Sar][NMeV] / II: T[dV]P[Sar][NMeV]; ester I:1-I:C, II:1-II:C; linker I:N-II:N via Actinocin(9to1))",cell viability,[7],did not significantly affect
same,basal glucose uptake in presence of inhibitor,[5],did not significantly affect
same,insulin- and GPCR-stimulated glucose uptake in presence of inhibitor,[5],did not significantly affect
C[C@@H]1C[C@@H]([C@H](O)CC2CC(=O)NC(=O)C2)C(=O)[C@@H](C)C1 [cyclohexamide],basal glucose uptake in presence of inhibitor,[5],did not affect
same,insulin- and GPCR-stimulated glucose uptake in presence of inhibitor,[5],did not affect
C=C1[C@@H](C)[C@H]2[C@H](Cc3ccccc3)NC(=O)[C@]23OC(=O)/C=C/[C@H](O)CCC[C@@H](C)C/C=C/[C@H]3[C@@H]1O [cytochalasin B],basal glucose uptake in presence of inhibitor,[5],reduced basal glucose uptake
same,insulin- and GPCR-stimulated glucose uptake in presence of inhibitor,[5],reduced
CC(C)(C)NC(=O)[C@@H]1CN(Cc2cccnc2)CCN1C[C@@H](O)C[C@@H](Cc1ccccc1)C(=O)N[C@H]1c2ccccc2C[C@H]1O [indinavir],basal glucose uptake in presence of inhibitor,[5],blocked basal glucose uptake
same,insulin- and GPCR-stimulated glucose uptake in presence of inhibitor,[5],significantly reduced
"NC[C@H](O)c1ccc(O)c(O)c1 [norepinephrine (NA), norepinephrine]",effect of GRK2 down-regulation with siRNA on glucose uptake stimulated by the substance,[6],inhibited
Cc1cc(C(C)(C)C)c(O)c(C)c1CC1=NCCN1 [oxymetazoline],effect of GRK2 down-regulation with siRNA on glucose uptake stimulated by the substance,[6],inhibited
insulin,glucose uptake,[5],increased glucose uptake
same,effect of GRK2 knock-down with siRNA on glucose uptake stimulated by the substance,[5],could not be blocked; also recorded: does not inhibit
same,GLUT4 recruitment to the plasma membrane,[3],GLUT4 recruitment to the plasma membrane to the same extent
same,effect of GRK2 down-regulation with siRNA on glucose uptake stimulated by the substance,[6],does not inhibit
